Results on 1 molecule are retold here after US11167015B2, “Arginine and its use as a T cell modulator” (INSTITUTE FOR RESEARCH IN BIOMEDICINE, priority 2016, dated 2021).

In test [1] the test system is human naïve CD4+ T cells. Briefly: CCR7 expression by flow cytometry. The class given is cell-based. Particulars: day 10 after activation, L-arginine supplemented vs control cultures. Here is the method:
FIG. 4. L-arginine limits human T cell differentiation and endows cells with a high survival capacity in vitro. (A, B) Human naïve CD4^+ T cells were activated in L-Arg medium or Ctrl medium in the presence of 10 ng/ml IL-12. IFN-γ was quantified in culture supernatants after 5 days (A) or after re-activation for 5 h with PMA/Ionomycin (B); n=9 from three donors. (C) Naïve CD4^+ T cells were labeled with CellTrace Violet (CTV) and activated in L-Arg medium or Ctrl medium. On day 10, proliferating CTV^lo T cells were stained with an antibody to CCR7 and analyzed by flow cytometry; n=15 from three donors. (D) Naïve CD4^+ T cells were activated for 5 days in L-Arg or Ctrl medium in the presence of exogenous IL-2, washed extensively and cultured in Ctrl medium in the absence of IL-2. Shown is the percentage of living T cells as determined by Annexin V staining at different time points after IL-2 withdrawal. One representative experiment out of three performed. (E) Same experiment as in (D). Shown is the difference of living activated CD4^+ and CD8^+ T cells 5 days after withdrawal of IL-2; n=46, from sixteen donors (CD4^+ T cells); n=13, from four donors (CD8^+ T cells). […] (K) Effect of norNOHA and BEC on proliferation of CTV-labeled naïve T cells measured 72 h after activation. *p<0.05, **p<0.01, ***p<0.001, ****p<0.0001 (Student's t-test).
For orientation: A flow cytometer gives signals particle by particle.

Test [2] concerns human CD4+ T cell clones. Briefly: Survival experiment with CRISPR/Cas9 gene knockout T cell clones. It counts as cell-based. Here is the method: Naïve CD4 T cells were activated with plate-bound CD3 and CD28 antibodies. 48 h after activation IL-2 was added to culture media (500 U ml^−1). After a further 3 days of culturing, cells were washed, counted and equal cell numbers were plated in medium devoid of IL-2. The withdrawal medium was no longer supplemented with e.g. L-arginine. Cell viability was assessed with annexin V.
Two to four short guide RNAs (sgRNAs) (Table 1) per gene were designed using the online tool provided by the Zhang laboratory (tools.genome-engineering.org). Oligonucleotide pairs with BsmBI-compatible overhangs were annealed and cloned into the lentiviral vector lentiCRISPR v2 (Addgene plasmid #52961) (Sanjana et al., 2014). […]
To screen for clones with disrupted target genes, individual clones were lysed with sample buffer containing 80 mM Tris pH 6.8, 10.5% glycerol, 2% SDS and 0.00004% Bromophenol blue. Lysate of 100,000 cells was separated by SDS-PAGE followed, blotted onto PVDF membranes and analyzed with antibodies to target proteins, Baz1B (Abeam, ab50850), PSIP1 (Bethyl, A300-848A), DDX17 (Abeam, ab180190), PTPN6 (Santa Cruz, sc-287) or TSN (Sigma, HPA059561). […] To screen for clones with disrupted B2M, single cell clones were stained with an antibody to MHC-1 (eBioscience, HLA-ABC-FITC) and analyzed by flow cytometry.

Test [3] deals with B16.OVA melanoma. Briefly: Tumor experiment: in vitro activation of T cells. It counts as in vivo, C57BL/6 mice. Conditions: L-arginine-treated OT-I T cells transferred into B16 OVA tumor bearing mice. Here is the method: B16-OVA melanoma cells were cultured in RPMI 1640 plus 10% FCS, 1% penicillin/streptomycin and 2 mM glutamine. Before injection into mice, cells were trypsinized and washed twice in PBS. Then, 5×10^5 cells were subcutaneously injected in the dorsal region of Wt C57BL/6 mice. Ten days post injection, 5×10^6 OT-I cells, that have been activated in vitro as described above, were injected into the tail vein of tumor-bearing mice. The size of tumors was measured in a blinded fashion using calipers.

On to `N=C(N)NCCC[C@H](N)C(=O)O` [L-arginine], for which the “fraction of proliferating CCR7+ T cells” value in test [1] is recorded as “higher fraction”. Also, the “L-arginine's beneficial effect on T cell survival in BAZ1B, PSIP1 and TSN knockout clones” value in test [2] (knockout of BAZ1B, PSIP1 and TSN) is “significantly reduced”. For the same molecule, the “effect of L-arginine on T cell survival in PTPN6 (Shp-1) or B2M knockout clones” value in test [2] (knockout of PTPN6 (Shp-1) or B2M) is listed as “did not alter”. Further, in test [3], the “anti-tumor response: survival of mice” value is on record as “increased survival of mice” and the “anti-tumor response: tumor size” value is “reduction of tumor size”.
